# What was measured:
# Assay type in all cases: cell-based, human
# mature compact CMs [1] = assay: In vitro pathological stimuli model: ECAR by Seahorse XF glycolysis assay
# Protocol: For the Seahorse™ XF FAO assay, a few EBs were plated onto an XFe24 cell culture microplate coated by Matrigel™ 48 hours prior to the assay. 24 hours prior to the assay, replace the culture medium with substrate-limited medium containing 0.5 mM glucose (Sigma), 1.0 mM Glutamine (Life technology), 0.5 mM Carnitine (Sigma), and 1% Fetal Bovine Serum (Wisent) in DMEM no glucose medium (ThermoFisher). 45 mins prior to the assay, wash the cells two times with FAO assay medium, add 375 μl/well FAO assay medium to the cells and incubate for 45 mins at 37 C. Load the assay cartridge with Seahorse™ XF Cell Mito Stress Test compounds (2 μM oligomycin, 5 μM FCCP, 0.5 μM rotenone/0.5 μM antimycin A). […] After the measurement of OCR, EBs are dissociated and counted the cell number in each well. […] After the measurement of ECAR, EBs are dissociated and counted the cell number in each well. […]
# To induce a pathological response in the mature CMs, we cultured them in the presence of isoproterenol (100 μM), a small molecule adrenergic agonist in a hypoxic (5% O2) environment, in low glucose containing medium with Palmitate (200 μM) for 6 days (FIG. 8B). […] To assess the glycolytic flux in these cells, we measured the extracellular acidification rate (ECAR) as an index of glycolytic activity using the Seahorse™ XF assay (Mookerjee and Brand. J Vis Exp. (2015) e53464).
# [2] = system: hPSC-derived compact cardiomyocytes; assay: Seahorse XF FAO Cell Mito stress test (OCR), compact cardiomyocytes; details: ETO 40 μM, mature cells
# hPSC-derived atrial CMs = assay: Seahorse FAO Cell Mito stress test (OCR), atrial CMs; details: ETO 40 μM
# mature compact CMs [3] = assay: In vitro pathological stimuli model (hypoxia+ISO): RT-qPCR
# Protocol: Total RNA from samples was isolated using RNAqueous™-micro Kit including RNase-free DNase treatment (invitrogen). RNA from dissected ventricular and atrial tissue of human fetal hearts was isolated using the TRIzol® method (ThermoFisher) and treated with DNase (Ambion®). Isolated RNA was reverse transcribed into cDNA using oligo (dT) primers and random hexamers and iScript™ Reverse Transcriptase (ThermoFisher). QRT-PCR was performed on an EP Real-Plex MasterCycler® (Eppendorf®) using QuantiFast® SYBR Green PCR kit (QIAGEN). The copy number of each gene relative to the house keeping gene TBP.
# (§1) To induce a pathological response in the mature CMs, we cultured them in the presence of isoproterenol (100 μM), a small molecule adrenergic agonist in a hypoxic (5% O2) environment, in low glucose containing medium with Palmitate (200 μM) for 6 days (FIG. 8B). Immature control cells were treated under the same conditions. […] (FIG. 8C). To assess the glycolytic flux in these cells, we measured the extracellular acidification rate (ECAR) as an index of glycolytic activity using the Seahorse™ XF assay (Mookerjee and Brand. J Vis Exp. (2015) e53464).
# mature and immature CMs [4] = assay: In vitro pathological stimuli model: Nile Red lipid accumulation; details: treated populations
# Protocol: To quantify the lipid droplets, Cayman's Lipid Droplets Fluorescence Assay Kit (Cayman) was used. After the EBs were dissociated as described above, cells were fixed by Fixative Solution for 10 mins at room temperature. Cells were washed with Assay Buffer and stained with the Nile Red Staining Solution at room temperature for 15 mins. Cells were washed with Assay Buffer and analyzed with filter sets to detect FITC using the LSR II Flow cytometer (BD PharMingen™). Data were analyzed using FlowJo™ software (Tree Star).
# as §1
# mature and immature CMs [5] = assay: In vitro pathological stimuli model: CASP9 expression and Annexin V apoptosis assay
# Protocol: After the culture in the pathological condition for 6 days, the EBs were dissociated as described above. To detect the apoptosis following the pathological stimuli, TACS® Annexin V assay (TREVIGEN) was performed by flowcytometry. Cells were washed with PBS and stained with Annexin V-FITC for 15 mins at room temperature. Add Binding Buffer to samples and process by flowcytometry. Stained cells were analyzed using the LSR II Flow cytometer (BD). Data were analyzed using FlowJo™ software (Tree Star).
# as §1
compound,measurement,setting,value
"O=CC[C@@H](O)[C@H](O)[C@H](O)CO [2-DG, 2-deoxy-glucose]",ECAR following injection,"mature compact CMs [1]; mature CMs exposed to the pathological stimuli, 2-DG 100 mM",rapid decrease
"CCOC(=O)[C@@]1(CCCCCCOc2ccc(Cl)cc2)CO1 [ETO, etomoxir]",mitochondrial oxidation,[2],blocked
same,"mitochondrial oxidation, atrial CMs",hPSC-derived atrial CMs,blocked
CC(C)NCC(O)c1ccc(O)c(O)c1 (stereo not shown) [isoproterenol],"expression of glycolysis-related genes GLUT1, GAPDH and LDHA","mature compact CMs [3]; isoproterenol 100 μM, 5% O2, low glucose with Palmitate 200 μM, 6 days, mature CMs",upregulation
same,"expression of CD36, GPD1 and PLIN2",mature compact CMs [3]; mature CMs under the pathological stimuli,upregulated
same,expression of hormone sensitive lipase HSL,mature compact CMs [3]; treated mature CMs,downregulated
same,glycolytic activity (ECAR),"mature compact CMs [1]; isoproterenol 100 μM, 5% O2, 6 days, mature CMs",significantly upregulated
same,lipid accumulation (Nile red),mature and immature CMs [4],increases
same,"apoptosis (CASP9, Annexin V^+ cells)",mature and immature CMs [5]; immature population,not in the immature population
same,"apoptosis (CASP9, Annexin V^+ cells)",mature and immature CMs [5]; mature population,induced apoptosis

# Reference: patent publication US20220228120A1, “Cardiomyocyte Compositions and Use Thereof” (UNIVERSITY HEALTH NETWORK, priority 2019, published 2022)
